Test results published in patent US4493843A, “Indole and indoline carboxylic acid compounds and method of use” (May & Baker Limited, priority 1980, dated 1985).
Where two headings read alike, the source gives them in different places.

System: serum cholesterol and serum triglycerides
Experiment: Hypolipidaemic activity in rats (compound in diet, last 7 of 10 days)
Format: in vivo, Male Wistar rats
Conditions: Rattus norvegicus, po, 168 h, 7 days; for change in vivo at 0.2 % strength: 0.2 % w/w dose in diet; for change in vivo at 0.1 % strength: 0.1 % w/w dose in diet
Protocol: Hypolipidaemic Activity in Rats
Male Wistar rats each weighing between 120 and 150 g were caged in groups of eight and fed a powdered diet for 10 days. For the last 7 days of that period the test compound was administered orally by mixing the compound in the diet and allowing the animals to feed normally. Food consumption was measured on day 9 for each group.
At noon on day 10 the animals were killed by inhalation of carbon dioxide from solid carbon dioxide. A sample of blood was removed by cardiac puncture and the serum cholesterol and serum triglycerides were analysed by means of an autoanalyser.
Control groups (receiving only the normal, unmedicated diet) were included with each test.
The percentage reductions in the concentrations of serum cholesterol and serum triglycerides were calculated by comparison with the simultaneous controls, for each concentration of the test compound used.

[1] = read-out: % change in serum cholesterol compared with control
[2] = read-out: % change in serum triglycerides compared with control

Row | SMILES | change in vivo at 0.2 % strength [1] [%] | change in vivo at 0.2 % strength [2] [%] | change in vivo at 0.1 % strength [1] [%] | change in vivo at 0.1 % strength [2] [%]
1 | CCCCCCCCc1c[nH]c2cc(C(=O)OC)ccc12 [Compound AZZ, methyl 3-(n-octyl)indole-6-carboxylate] | -18 | 24 |  | 
2 | CCCCCCCCCCCCCCCCCc1cc2ccc(C(=O)O)cc2[nH]1 [Compound B, 2-(n-heptadecyl)indole-6-carboxylic acid] | 5 | -4 |  | 
3 | CCCCCCCCCCCCCCCc1cc2cc(C(=O)OCC)ccc2[nH]1 [Compound BB, ethyl 2-(n-pentadecyl)indole-5-carboxylate] | -19 | -39 |  | 
4 | CCCCCCCCCCCCCCCCc1c[nH]c2ccc(C(=O)OC)cc12 [Compound BCC, methyl 3-(n-hexadecyl)indole-5-carboxylate] | 2 | 16 |  | 
5 | CCCCCCCCCCCCc1c[nH]c2cc(C(=O)O)ccc12 [Compound BDD, 3-(n-dodecyl)indole-6-carboxylic acid] | -2 | -5 |  | 
6 | CCCCCCCCc1c[nH]c2cc(C(=O)O)ccc12 [Compound BEE, 3-(n-octyl)indole-6-carboxylic acid] | -19 | -18 |  | 
7 | CCCCCCCCCCCCCCCCc1c[nH]c2cc(C(=O)O)ccc12 [Compound BFF, 3-(n-hexadecyl)indole-6-carboxylic acid] | 7 | -17 |  | 
8 | CCCCCCCCCCCCCCCCCCc1c[nH]c2cc(C(=O)O)ccc12 [Compound BGG, 3-(n-octadecyl)indole-6-carboxylic acid] | -7 | -7 |  | 
9 | CCCCCCCCCCCCCCCCc1c[nH]c2ccc(C(=O)O)cc12 [Compound BHH, 3-(n-hexadecyl)indole-5-carboxylic acid] | -6 | -10 |  | 
10 | CCCCCCCCCCCCCCCCCCc1c[nH]c2ccc(C(=O)O)cc12 [Compound BSS, 3-(n-octadecyl)indole-5-carboxylic acid] | -9 | -11 |  | 
11 | CCCCCCCCc1c[nH]c2ccc(C(=O)O)cc12 [Compound BTT, 3-(n-octyl)indole-5-carboxylic acid] | 0 | 15 |  | 
12 | CCCCCCCCCCCc1cc2ccc(C(=O)O)cc2[nH]1 [Compound C, 2-(n-undecyl)indole-6-carboxylic acid] |  |  | -28 | -39
13 | CCCCCCCCCCCCc1cc2ccc(C(=O)OCC)cc2[nH]1 [Compound CC, ethyl 2-(n-dodecyl)indole-6-carboxylate] | -17 | -57 |  | 
14 | CCCCCCCCCCCC1Nc2cc(C(=O)O)ccc2C1C (stereo not drawn) [Compound CNN, 2(RS),3(RS)-2-(n-undecyl)-3-methylindoline-6-carboxylic acid] | -31 | -72 |  | 
15 | CCCCCCCc1cc2cc(C(=O)OCC)ccc2[nH]1 [Compound DD, ethyl 2-(n-heptyl)indole-5-carboxylate] | -6 | -25 |  | 
16 | CCCCCCCCCCCCCCCCCc1cc2cc(C(=O)O)ccc2[nH]1 [Compound E, 2-(n-heptadecyl)indole-5-carboxylic acid] | -54 | -65 | -42 | -55
17 | CCCCCCCCCCCCCCCc1cc2c(C(=O)OCC)cccc2[nH]1 [Compound EE, ethyl 2-(n-pentadecyl)indole-4-carboxylate] | -5 | -2 |  | 
18 | CCCCCCCCCCCc1cc2cc(C(=O)O)ccc2[nH]1 [Compound F, 2-(n-undecyl)indole-5-carboxylic acid] | -37 | -73 | -18 | -43
19 | CCCCCCCCCCCc1cc2ccc(C(=O)OCC)cc2[nH]1 [Compound FF, ethyl 2-(n-undecyl)indole-6-carboxylate] | -13 | -40 |  | 
20 | CCCCCCCCCCCc1cc2ccc(C(=O)OCCCC)cc2[nH]1 [Compound GG, n-butyl 2-(n-undecyl)indole-6-carboxylate] | -11 | -35 |  | 
21 | CCCCCCCCCCCCCc1cc2cc(C(=O)O)ccc2[nH]1 [Compound H, 2-(n-tridecyl)indole-5-carboxylic acid] | -48 | -68 | -15 | -26
22 | CCCCCCCCCCCCCCCc1cc2cc(C(=O)OCCCC)ccc2[nH]1 [Compound HH, n-butyl 2-(n-pentadecyl)indole-5-carboxylate] | -24 | -50 |  | 

Row | SMILES | change in vivo at 0.2 % strength [1] [%] | change in vivo at 0.2 % strength [2] [%] | change in vivo at 0.1 % strength [1] [%] | change in vivo at 0.1 % strength [2] [%]
23 | CCCCCCCCCCCCCCCc1cc2cccc(C(=O)O)c2[nH]1 [Compound I, 2-(n-pentadecyl)indole-7-carboxylic acid] | -26 | -33 |  | 
24 | CCCCCCCCCCCCCCCc1cc2c(C(=O)O)cccc2[nH]1 [Compound J, 2-(n-pentadecyl)indole-4-carboxylic acid] | -9 | -2 |  | 
25 | CCCCCCCCCCCCc1cc2cc(C(=O)OCCCC)ccc2[nH]1 [Compound KK, n-butyl 2-(n-dodecyl)indole-5-carboxylate] | -18 | -34 |  | 
26 | CCCCCCCCCc1cc2ccc(C(=O)O)cc2[nH]1 [Compound L, 2-(n-nonyl)indole-6-carboxylic acid] | -21 | -25 |  | 
27 | CCCCCCCCCCCCCCCc1cc2cc(C(=O)OC)ccc2[nH]1 [Compound LL, methyl 2-(n-pentadecyl)indole-5-carboxylate] | -16 | -22 | -13 | -32
28 | CCCCCCCCCCc1cc2cc(C(=O)O)ccc2[nH]1 [Compound M, 2-(n-decyl)indole-5-carboxylic acid] | -26 | -65 |  | 
29 | CCCCCCCCCCCCCCCc1cc2c(C(=O)OCCCC)cccc2[nH]1 [Compound MM, n-butyl 2-(n-pentadecyl)indole-4-carboxylate] | 25 | -41 |  | 
30 | CCCCCCCCCCc1cc2ccc(C(=O)O)cc2[nH]1 [Compound N, 2-(n-decyl)indole-6-carboxylic acid] | -20 | -45 |  | 
31 | CCCCCCCCCc1cc2cc(C(=O)O)ccc2[nH]1 [Compound O, 2-(n-nonyl)indole-5-carboxylic acid] | -13 | -44 |  | 
32 | CCCCCCCCCCCCCCCCc1cc2cc(C(=O)O)ccc2[nH]1 [Compound OO, 2-(n-hexadecyl)indole-5-carboxylic acid] | -52 | -75 |  | 
33 | CCCCCCCCc1cc2ccc(C(=O)O)cc2[nH]1 [Compound P, 2-(n-octyl)indole-6-carboxylic acid] | -32 | -37 |  | 
34 | CCCCCCCCCCCCCCCCCCCc1cc2cc(C(=O)O)ccc2[nH]1 [Compound PP, 2-(n-nonadecyl)indole-5-carboxylic acid] | -13 | -41 |  | 
35 | CCCCCCCc1cc2cc(C(=O)O)ccc2[nH]1 [Compound Q, 2-(n-heptyl)indole-5-carboxylic acid] | -10 | -14 |  | 
36 | CCCCCCCCCCCCCCCCCCCCCCCc1cc2cc(C(=O)O)ccc2[nH]1 [Compound QQ, 2-(n-tricosyl)indole-5-carboxylic acid] | -16 | -36 |  | 
37 | CCCCCCCc1cc2ccc(C(=O)O)cc2[nH]1 [Compound R, 2-(n-heptyl)indole-6-carboxylic acid] | -12 | -18 |  | 
38 | CCCCCCCCCCCCc1cc2ccc(C(=O)O)cc2[nH]1 [Compound S, 2-(n-dodecyl)indole-6-carboxylic acid] | -26 | -52 |  | 
39 | CCCCCCCCCCCCCCc1cc2ccc(C(=O)O)cc2[nH]1 [Compound SS, 2-(n-tetradecyl)indole-6-carboxylic acid] | -14 | 3 |  | 
40 | CCCCCCCCCCCc1cc2cc(C(=O)OCC)ccc2[nH]1 [Compound U, ethyl 2-(n-undecyl)indole-5-carboxylate] | -13 | -39 |  | 
41 | CCCCCCCCCCCCCCCCCCCCc1cc2ccc(C(=O)O)cc2[nH]1 [Compound UU, 2-(n-eicosyl)indole-6-carboxylic acid] | -15 | -29 |  | 
42 | CCCCCCCCCCCCCCCCCCc1cc2ccc(C(=O)O)cc2[nH]1 [Compound V, 2-(n-octadecyl)indole-6-carboxylic acid] | 3 | -1 |  | 
43 | CCCCCCCCCCCc1cc2c(C(=O)O)cccc2[nH]1 [Compound W, 2-(n-undecyl)indole-4-carboxylic acid] | -3 | 22 |  | 
